Holding throughout (experiment): NCI-60 cell line screen, 48 h
The test system of assay [1] is DU-145 prostate.
The test system of assay [2] is HCT-116 colon.
The test system of assay [3] is MALME-3M melanoma.
For assay [4], the system named is MCF7 breast.
In assay [5] the test system is SK-MEL-2 melanoma.
Assay [6] concerns SK-MEL-28 melanoma.
Assay [7] relates to SK-OV-3 ovarian.
In assay [8] the test system is SN12C renal.
Assay [9] relates to SNB-19 CNS.
In assay [10] the test system is SNB-75 CNS.
Assay [11] has as its system TK-10 renal.
Assay [12] concerns UACC-257 melanoma.
For assay [13], the system named is UACC-62 melanoma.

Values joined by “and” are separate entries in the source; they are usually repeats but may differ in a detail not shown here. Equal values may be shown once.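 Compound exposure: 48 hours, 5 concentrations, 96-well plates. GI50 marks 50% less growth. TGI: concentration producing complete growth inhibition.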

For `O=c1c(-c2nc3ccccc3c3ccccc3c2=O)nc2ccccc2c2ccccc12`, the TGI is greater than 100 µM in assay [1]; 71.6 µM in [2]; greater than 100 µM in assay [3]; greater than 100 µM in [4]; greater than 100 µM in [5]; greater than 100 µM in assay [6]. Also, the TGI in [7] is greater than 100 µM; in assay [8] it was 99.1 µM; in [9], greater than 100 µM; in assay [10] it was 94.9 µM; in assay [11] it was greater than 100 µM; in [12], greater than 100 µM. The same molecule gave a TGI in assay [13] greater than 100 µM.
Turning to `COC1OC2COC(=O)c3cc(O)c(O)c(O)c3-c3c(cc(O)c(O)c3O)C(=O)OC2C(O)C1O` (stereo not given), the TGI in assay [1], in [2], in assay [3], in assay [4], in assay [5] and in assay [6] was greater than 100 µM in each case. The TGI in assay [7] was greater than 100 µM; in assay [8], 30.1 µM; in assay [9], greater than 100 µM; in assay [10], greater than 100 µM; in assay [11] it was greater than 100 µM; in [12], greater than 100 µM. The molecule further registered a TGI in [13] of 47.1 µM.
On to `CC(=O)OCC1OC(OCCCOP(=O)(OCCC#N)OCC2OC(n3cnc4c(N)ncnc43)C(OC(=O)c3ccccc3)C2OC(=O)c2ccccc2)C(OC(C)=O)C(OC(C)=O)C1OC(C)=O` (stereo not given), for which the TGI in [1] was greater than 100 µM; in assay [2], greater than 100 µM; in assay [3], 5.53 µM; in [4], greater than 100 µM; in [5], greater than 100 µM; in [6] it was greater than 100 µM. Further, the TGI in assay [7], in assay [8], in assay [9], in assay [10], in [11] and in assay [12] was greater than 100 µM each time. In addition, in assay [13], the TGI is greater than 100 µM.
As for `CCN(CC)c1c(C(C)(C)C)c(=O)n2ccsc2c1OC(C)=O`, the TGI in assay [1] was 38.7 µM; in assay [2], 26.5 µM; in [3] it was 25.8 µM; in assay [4], 28.9 µM; in [5], 31 µM; in assay [6], 30.8 µM. In addition, the TGI in assay [7] was 36 µM; in [8] it was 32.6 µM; in assay [9], 30.4 µM; in assay [10] it was 31 µM; in assay [11], 34.7 µM; in assay [12], 30.7 µM. In assay [13], the TGI is 34.5 µM.
On to `CCOC(=O)[C@@]12C[C@](/C=C/OC)(O[Si](C)(C)C)[C@@]13c1cc(OC)c(OC)cc1CCN3C(=O)C2=O`, for which the TGI in assay [1], in assay [2], in [3], in assay [4], in assay [5] and in assay [6] was greater than 100 µM in each case. The TGI in assay [7], in [8], in assay [9], in assay [10], in [11] and in assay [12] was greater than 100 µM each time. In assay [13], this molecule gave a TGI greater than 100 µM.
With `COc1cc(/C=C(\C)[N+](=O)[O-])cc(OC)c1`, the TGI stood at 44.6 µM in assay [1]; 31.2 µM in assay [2]; 29.4 µM in assay [3]; 21.1 µM in [4]; 34.9 µM in [5]; 33.2 µM in assay [6]. Further, the TGI is greater than 100 µM in assay [7]; 31 µM in assay [8]; greater than 56.2 µM in [9]; 31.8 µM in assay [10]; 26.1 µM in assay [11]; 31 µM in [12]. The molecule further showed a TGI in assay [13] of 28.7 µM.
For `CCCC(=O)Nc1cc(C(=O)N2C[C@H]3C[C@@]34C2=CC(=O)c2[nH]cc(C)c24)n(COC)c1`, the GI50 in assay [1] is 0.0776 µM; in [4], 0.0139 µM; in [5] it was 0.13 µM; in assay [8], 0.168 µM; in [9], 0.326 µM; in [13], 0.144 µM. Besides, the TGI in assay [2] is 7.27 µM; in assay [3], 0.439 µM; in assay [4] it was 6.32 µM and 0.661 µM; in assay [6], 1.28 µM; in [7] it was 5.36 µM; in assay [8], 4.18 µM and 0.684 µM. In addition, the TGI is 29.1 µM and 13 µM in assay [9]; 1.45 µM and 0.718 µM in assay [10]; 2.87 µM in assay [11]; 0.833 µM in assay [12]; 0.911 µM and 0.289 µM in [13].
Regarding `COc1cccc(NC(=O)CC(=O)NN)c1`, the TGI in [1], in assay [2], in [3], in assay [4], in [5] and in assay [6] was greater than 100 µM each time. Besides, the TGI in [7], in assay [8], in assay [9], in assay [10], in assay [11] and in assay [12] was greater than 100 µM each time. Moreover, the TGI in assay [13] is greater than 100 µM.
In the case of `O=C(/C=C/c1ccc(-c2ccccc2)cc1)NCc1ccc(C(=O)NCCc2ccccc2)cc1`, the TGI in assay [1], in assay [2], in [3], in [4], in [5] and in assay [6] was greater than 100 µM each time. Besides, the TGI in [7], in assay [8], in assay [9], in [10], in assay [11] and in assay [12] was greater than 100 µM throughout. This molecule also showed a TGI in assay [13] greater than 100 µM.
As to `S=c1ncc(-c2cncc(-c3cnc(=S)[nH]c3)n2)c[nH]1`, the TGI in [1], in [2], in assay [3], in [4], in [5] and in assay [6] was greater than 100 µM each time. For the same molecule, the TGI in [7], in [8], in assay [9], in [10], in assay [11] and in assay [12] was greater than 100 µM in each case. Also, the TGI in assay [13] is greater than 100 µM.
Take `C=CCOCC1C2CCC3(OCCO3)C21` (stereo not given): the TGI in assay [1], in [2], in assay [3], in assay [4], in assay [5] and in assay [6] was greater than 100 µM each time. In addition, the TGI in assay [7], in [8], in [9], in [10], in [11] and in assay [12] was greater than 100 µM throughout. This molecule returned a TGI in assay [13] greater than 100 µM.
For `O=C1Cc2cc3ccccc3nc2-c2ccccc2N1`, the TGI in assay [1] was greater than 100 µM; in assay [2], 62.2 µM; in assay [3], greater than 100 µM; in assay [4], greater than 100 µM; in assay [5], greater than 100 µM; in [6], greater than 100 µM. Also, the TGI in assay [7] was greater than 100 µM; in [8], greater than 100 µM; in assay [9], greater than 100 µM; in [10], 65.7 µM; in [11] it was greater than 100 µM; in assay [12] it was greater than 100 µM. The molecule also gave a TGI in [13] greater than 100 µM.

These data come from PubChem BioAssay (NCI).
